One assay has as its system PASMC. The experiment in a line: Membrane potential (Em) measurement, current clamp, primary PASMC. The class given is cell-based, human. As to conditions: BBR 30 μM, T16Ainh-A01 10 μM. The procedure:
PASMC were grown on glass coverslips and serum starved for 24-48 hours. The coverslips were perfused with a bath solution composed of (in mM) NaCl 141, KCl 4.7, HEPES 10, glucose 10, CaCl2 1.8, MgCl2 1.2, pH 7.4 (NaOH) at room temperature. Micropipettes were pulled of borosilicate glass capillaries (GC150F-10, Harvard Apparatus Ltd, Edenbridge, Kent, UK) with a P-2000 electrode puller (Sutter Instruments, Novato Ca, USA), and fire polished using a micro-forge (MF-830, Narishige, Tokyo, Japan) to give a final resistance of 3-5 MΩ when filled with the pipette solution (composition in mM: NaCl 10, KCl 125, K2ATP 5, HEPES 10, EGTA 5, MgCl2 4, pH set to 7.2 with KOH). Em was measured with a HEKA EPC10 patch clamp amplifier (Dr. Schulze GmbH, Lambrecht, Germany) in the current clamp mode as described by others (Mason, M J, et al., Biophys. J. (2005) 88, 739-750; Perkins, KL, J. Neurosci. Methods (2006) 154, 1-18).
The liquid junction potential was calculated with the Clampex 10.0 software (Molecular Devices, Sunnyvale Calif., USA) and an online correction was made for each recording. Both at baseline and during perfusion with 30 μM benzbromarone (BBR, Sigma, St Louis Mo., USA) or 10 μM T16Ainh-A01 (Tocris, Bristol, UK), only those recordings in which (1) the Em was constant for at least 3 minutes, and (2) the seal resistance was constantly high (>5 GΩ) were used for the analyses.
The HEK-293 cells were transfected overnight either with the CLCA1 gene containing or with the empty plasmid, using the Effectene transfection reagent kit (Qiagen) and DMEM F-12 complete medium. On the next day, the medium was changed to serum-free SMC Medium. The resulting conditioned media were collected 24 hours later and applied on the PASMC of healthy donors. After 24 hours of incubation, the Em of the PASMC was measured as described above. To confirm the presence of CLCA1 in the conditioned medium, 20 μL of conditioned medium as well as control medium (collected from cells transfected with the empty plasmide) were analyzed with western blot as described above, using a CLCA1 antibody (ab108851, Abcam).

In assay [1] the test system is monocrotaline treated rats. The experiment in a line: Monocrotaline treated rats, chronic treatment with slow-release pellets. The class given is in vivo, rat. The procedure: Male Sprague-Dawley rats (body weight: approx. 250 g, Charles River) received a single subcutaneous injection of monocrotaline (MCT, 60 mg/kg, n=16) or vehicle (control group, n=8). Since significant RVSP increase and PA muscularization had been detected as early as 12 days after the injection of MCT58, two weeks after monocrotaline treatment rats were randomly ordered into two groups. Subcutaneous slow-release pellets (Innovative Research of America) that contained either benzbromarone (MCT+BBR, n=8) or vehicle (MCT+Veh, n=8) were implanted. Four weeks after monocrotaline treatment all rats were subjected to echocardiography and in vivo hemodynamic measurements, thereafter they were sacrificed for organ collection.
Echocardiographic measurements were performed using a Vevo 770 High Resolution Imaging System with a 30 MHz RMV-707B scan head (VisualSonics, Toronto, Canada) as previously reported (Egemnazarov, B, et al., J. Am. Soc. Echocardiogr. (2015) 28, 828-843). Briefly, animals were mounted on a heated pad and kept under anaesthesia with isoflurane 0.8-1.2%. Chest hair was depilated and a layer of sonographic coupling gel was applied to the thorax. RV internal diameter (RVID) and free wall thickness (RVFW) from the left parasternal long axis view were measured in M-mode and 2-D modalities. RV outflow tract was visualized from the parasternal short axis view at the level of the aortic valve. From this view, pulse wave (PW) Doppler flow recordings of the pulmonary artery were obtained with the sample volume positioned at the tip of the pulmonary valve leaflets. Here, peak velocity, acceleration time (PAAT), and velocity-time integral (VTI) were measured. For every parameter, measurements were done for 4-5 cardiac cycles and results were averaged. Cardiac output was calculated as CO (mL/min)=(7.85×[RV outflow tract]2×pulmonary valve velocity-time integral×heart rate)/1,000. Cardiac index (CI) was obtained by normalizing cardiac output to body weight.
In rats, in vivo hemodynamic measurements were conducted as described above for the mice, with the exception that for the right ventricular and the systolic blood pressures, 2 F Millar Catheters (SPR-513 and SPR-320, respectively) were used.
At the end of the hemodynamic measurements, animals were exsanguinated and the heart and lungs were isolated. The right ventricle (RV) was dissected from the left ventricle+septum (LV+S) and both of them were weighed. Right ventricular hypertrophy was assessed by calculating the Fulton index, defined as RV weight/(LV+S weight).
Paraffin-embedded mouse and rat lung tissues were cut to 2 μm thin sections. Double immunohistochemical staining and quantification of the non-muscularized and muscularized arteries were made as previously described (Crnkovic, S, et al., Respir. Physiol. Neurobiol. (2011) 179, 342-345). Immunostained slides were scanned with an Olympus BX61VS microscope using the OlyVIA software (Olympus Austria GmbH, Vienna, Austria). Vessel remodeling in lung sections was quantified using semi-automated image analysis software (Visiopharm, Hoersholm, Denmark). Throughout the analysis, all samples were identified with number codes to blind the operator for the experimental group. The percentage of non-muscularized and muscularized pulmonary arteries, relative to the total number of pulmonary arteries, was calculated.
Serial sections from the same lungs were used to determine cell proliferation in the PA wall, as described by Zabini et al. (Zabini, D. et al., J. Cell. Mol. Med. (2015) 19, 1151-1161). Lung sections were labeled using a primary antibody against the proliferation marker PCNA (sc-7907, Santa Cruz). Immunostained slides were scanned with an Olympus BX61VS microscope equipped with the OlyVIA software (Olympus Austria GmbH, Vienna, Austria). Negative controls were performed with the omission of the primary antibody.

[2] abbreviates: compared to the MCT+Veh group, week 4.
Where [3] appears, read: slow-release pellet from two weeks after MCT, echocardiography at week 4.

Molecules are shown by their SMILES.

For the molecule `CCc1oc2ccccc2c1C(=O)c1cc(Br)c(O)c(Br)c1` [benzbromarone, (2-Ethyl-3-benzofuranyl)-(3,5-dibrom-4-hydroxyphenyl)ketone], in the assay on PASMC (PASMC of IPAH patients), the “reversal of the Em of IPAH-PASMC to the levels of PASMC isolated from healthy donors” value is listed as “completely”. Besides, the “effect on Em of PASMC of donors” value with PASMC (PASMC of healthy donors) is reported as “no effect”. For the same molecule, the “PCNA positive nuclei in the medial layer of the PA” value in assay [1] (MCT treated rats, lung sections (not shown)) is “reduced number”. In assay [1] (MCT+BBR vs MCT+Veh), the “number of fully muscularized arteries” value is reported as “markedly reduced” and the “number of non-muscularized arteries” value is reported as “increased”. In assay [1] (setting [2]), the “RV hypertrophy (Fulton-index)” value was “significantly decreased” and the RVSP entry is reported as “significantly decreased”. In addition, in assay [1] (setting [3]), the “MCT-induced decrease in cardiac index (CI)” value is on record as “completely reversed”, the “MCT-induced decrease in pulmonary artery acceleration time (PAAT)” value is “completely reversed” and the “MCT-induced increase in right ventricular free wall thickness (RVFW Thickness)” value is “completely reversed”.

The record behind these values is patent US20210156844A1, “TMEM16A Modulation for Diagnostic or Therapeutic Use in Pulmonary Hypertension (PH)” (Bayer Aktiengesellschaft, priority 2017, published 2021).
